# Measurements published in paper PMC3386561 (Toxicology in Vitro, 2011).
# Entries after “also recorded” stand apart in the source; their conditions may differ.
# Assays:
# [1] = system: liver; conditions: cited from earlier work; for Toxicity / liver damage in rats (in words): ref Patel et al., 2011
# [2] = system: HepG2-CYP3A4 transfected cells; assay: Cell viability; format: cell-based; conditions: for Cytotoxicity (in words): 0-250 μM; for Concentration at which a significant decrease in cell viability begins: p < 0.05 vs 0 μM control
# [3] = Cell viability; format: cell-based; conditions: human
# [4] = Cell viability; format: cell-based; conditions: human; for viability: % Cell Viability
# [5] = system: HepG2 wild type cells; assay: Cell viability; format: cell-based; conditions: 24 hr
# [6] = Solubility in HBSS; format: physicochemical
# [7] = DCPT hydrolysis in HBSS; format: physicochemical; conditions: 250 μM in HBSS, 37 °C, after 24 hr
# [8] = biological target: T1, CYP3A4 (Homo sapiens, UniProt P08684)
# [9] = biological target: T1, CYP3A4; assay: in vitro
# [10] = biological target: T1, CYP3A4; assay: Testosterone 6β-hydroxylation in HepG2 wild type cells; conditions: 0-250 μM testosterone, 1 hr
# T1 sequence (P08684 whole entry): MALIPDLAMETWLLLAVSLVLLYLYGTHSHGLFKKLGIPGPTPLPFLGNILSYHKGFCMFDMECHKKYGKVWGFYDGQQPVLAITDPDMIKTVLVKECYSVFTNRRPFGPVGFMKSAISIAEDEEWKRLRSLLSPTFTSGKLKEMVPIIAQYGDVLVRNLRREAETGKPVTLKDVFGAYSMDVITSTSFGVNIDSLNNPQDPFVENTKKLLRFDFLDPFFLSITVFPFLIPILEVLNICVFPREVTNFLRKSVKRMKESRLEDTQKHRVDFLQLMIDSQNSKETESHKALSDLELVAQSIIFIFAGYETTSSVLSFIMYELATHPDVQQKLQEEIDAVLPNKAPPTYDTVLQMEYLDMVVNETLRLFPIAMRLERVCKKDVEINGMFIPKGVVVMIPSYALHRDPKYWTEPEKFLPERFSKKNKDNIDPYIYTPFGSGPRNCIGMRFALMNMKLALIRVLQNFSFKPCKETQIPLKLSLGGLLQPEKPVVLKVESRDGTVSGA
structure (smiles),measurement,setting,value
"O=C1SCCN1c1cc(Cl)cc(Cl)c1 [2-DCTD, (3,5-dichlorophenyl)-2-thiazolidinone]",Toxicity / liver damage in rats (in words),[1],neither compound produced liver damage
same,Cell viability,"[2]; 100 μM, 24 hr",99.6 ± 4.6%
same,Cell viability,"[2]; 250 μM, 24 hr",37.3 ± 7.1%
"O=C1CSCN1c1cc(Cl)cc(Cl)c1 [4-DCTD, 3-(3,5-dichlorophenyl)-4-thiazolidinone]",Toxicity / liver damage in rats (in words),[1],neither compound produced liver damage
same,CC50 at 24 h,[3],> 250 µM
same,Cytotoxicity (in words),[2]; 24 hr,not cytotoxic; also recorded: not toxic
same,CC50 at 24 h,[4]; HepG2-CYP3A4 transfected cells,> 250 µM
"O=C1CSC(=O)N1c1cc(Cl)cc(Cl)c1 [DCPT, 3-(3,5-dichlorophenyl)-2,4-thiazolidinedione]",Hepatotoxicity in rats (in words),"[1]; Fischer 344 rats, ref Kennedy et al., 2003, Patel et al., 2008",hepatotoxic
same,Reduction of cell viability,[5]; highest concentration (250 μM) DCPT,approximately 60%
same,CC50 at 24 h,[3],233 ± 19.7 µM
same,solubility,"[6]; HBSS, aqueous buffer",250 µM
same,DCPT remaining,[7],less than 50%
same,Reduction of cell viability,"[2]; 250 μM DCPT, 24 hr",80%
same,Concentration at which a significant decrease in cell viability begins,[2]; 24 hr,100 µM
same,Decrease in cell viability,"[2]; DEX pretreatment followed by 100 μM DCPT, compared to controls",approximately 10%
same,viability,"[4]; 100 μM DCPT alone, 24 hr",82.6 ± 2.8%
same,viability,"[4]; 100 μM DEX pretreatment 24 hr, then 100 μM DCPT 24 hr",73 ± 1%
same,viability,"[4]; 250 μM DCPT alone, 24 hr",21.3 ± 3.2%
same,CC50 at 24 h,[4]; HepG2-CYP3A4 transfected cells,160 ± 5.9 µM
"O=C(O)CSC(=O)Nc1cc(Cl)cc(Cl)c1 [DCTA, S-(3,5-dichlorophenyl)aminocarbonyl thioglycolic acid]",Toxicity / liver damage in rats (in words),[1],toxic
same,CC50 at 24 h,[3],65.3 ± 3.9 µM
same,Concentration at which a significant decrease in cell viability begins,[2]; 24 hr,50 µM
same,CC50 at 24 h,[4]; HepG2-CYP3A4 transfected cells,67.3 ± 8.1 µM
"O=C=Nc1cc(Cl)cc(Cl)c1 [DPI, 3,5-dichlorophenyl isocyanate]",Concentration at which a significant decrease in cell viability begins,[5]; p < 0.05 vs 0 μM control,25 µM
same,CC50 at 24 h,[3],> 250 µM
same,"viability at 24 h, 250 μM",[3],≥ 50%
same,Concentration at which a significant decrease in cell viability begins,[2]; 24 hr,100 µM
same,CC50 at 24 h,[4],> 250 µM
same,"viability at 24 h, 250 μM",[4],≥ 50%
"CC1SC(=O)N(c2cc(Cl)cc(Cl)c2)C1=O (centres unmarked) [DPMT, 3-(3,5-dichlorophenyl)-5-methyl-2,4-thiazolidinedione]",Toxicity / liver damage in rats (in words),[1],hepatotoxic
same,CC50 at 24 h,[3],> 250 µM
same,Solubility in HBSS (in words),[6]; evident at 250 μM,issues regarding the solubility
same,Cytotoxicity (in words),[2]; 24 hr,no observed decrease in viability; also recorded: non-toxic
same,CC50 at 24 h,[4]; HepG2-CYP3A4 transfected cells,> 250 µM
"CC(=O)N1CCN(c2ccc(OCC3COC(Cn4ccnc4)(c4ccc(Cl)cc4Cl)O3)cc2)CC1 (centres unmarked) [KCZ, ketoconazole, reference compound]",viability,[4],106 ± 4.5%
C[C@]12CC[C@H]3[C@@H](CCC4=CC(=O)CC[C@@]43C)[C@@H]1CC[C@@H]2O [Testosterone],Vmax of testosterone 6β-hydroxylation,[8],92.7 ± 13.3 pmol/min/mg protein
same,Km,[9],81.1 ± 5.7 µM
same,6β-hydroxylation of testosterone,[10],no detectable
